Experimental findings from patent publication US20250214998A1, “CYCLIC COMPOUNDS AS RECEPTOR MODULATING THERAPEUTICS AND METHODS AND USES THEREOF” (BIONOMICS LIMITED, priority 2018, published 2025) are described below.

Usually Papp A→B stands for the apparent permeability from the apical to the basolateral side of a cell layer.

For one data set, the system named is MDCK-MDR1 cells. Put plainly: A2B permeability (Papp) in MDCK-MDR1 cell monolayers. It is filed as in vitro ADME. Further details: dose or concentration left out as unconfirmed. The note with it: MDCK-MDR1 monolayer, A-B direction, HBSS pH 7.4, 60 min, 37° C. On the procedure: (§1) MDCK-MDR1 cells obtained from the NIH (Rockville, MD, USA) are used between passage numbers 6-30. Cells are seeded onto Millipore Multiscreen Transwell plates at 3.4×10^5 cells/cm2. The cells are cultured in DMEM and media is changed on day 3. On day 4 the permeability study is performed. Cell culture and assay incubations are carried out at 37° C. in an atmosphere of 5% CO2 with a relative humidity of 95%. On the day of the assay, the monolayers are prepared by rinsing both apical and basolateral surfaces twice with Hanks Balanced Salt Solution (HBSS) at the desired pH warmed to 37° C. Cells are then incubated with HBSS at the desired pH in both apical and basolateral compartments for 40 min to stabilise physiological parameters.
(§2) The dosing solutions are prepared by diluting test compound with assay buffer to give a final test compound concentration of […] (final DMSO concentration of 1% v/v). The fluorescent integrity marker lucifer yellow is also included in the dosing solution. […]
(§3) Test compound permeability is assessed in duplicate. […]
(§4) Test and control compounds are quantified by LC-MS/MS cassette analysis using a 7-point calibration with appropriate dilution of the samples. […] The starting concentration (CO) is determined from the dosing solution and the experimental recovery calculated from CO and both apical and basolateral compartment concentrations.
(§5) The integrity of the monolayer throughout the experiment is checked by monitoring lucifer yellow permeation using fluorimetric analysis. […] If a lucifer yellow Papp value is above a pre-defined threshold in one well, but the derived Papp result for test compound or marker compound in that well is qualitatively similar to that determined in the remaining replicate well (within the lucifer yellow threshold) then, based upon the scientific judgement of the responsible scientist, the cell monolayer may be considered acceptable. […] If this re-occurs upon repeat in both wells then toxicity or inherent fluorescence of the test compound is assumed. […]

Assay in data set [1]: as above
It is filed as in vitro ADME. Set-up: dose or concentration left out as unconfirmed. The note with it: dog; MDCK-MDR1 monolayer, A-B direction, HBSS pH 7.4, 60 min, 37° C. As for the experimental part: as §1, §2, §3, §4, §5

As for `CCn1cc(C(=O)N2CC3(CCOCC3)C2)c(=O)c2cc(OC3Cc4ccccc4C3)cnc21` [Example 23, 1-Ethyl-6-indan-2-yloxy-3-(7-oxa-2-azaspiro[3.5]nonane-2-carbonyl)-1,8-naphthyridin-4-one], the “A2B Papp” value in the data set on MDCK-MDR1 cells is 23 1.24 10^−6 cm/s.
Regarding `CCn1cc(C(=O)N2C3COCC2C3)c(=O)c2cc(OC3Cc4ccccc4C3)cnc21` [Example 16, 1-Ethyl-6-indan-2-yloxy-3-(3-oxa-6-azabicyclo[3.1.1]heptane-6-carbonyl)-1,8-naphthyridin-4-one], the “A2B Papp” value with MDCK-MDR1 cells is 16 2.06 10^−6 cm/s.
For `CCn1cc(C(=O)N2C[C@H]3C[C@@H]2CO3)c(=O)c2cc(OC3Cc4ccccc4C3)cnc21` (stereo in doubt) [Example 17, 1-Ethyl-6-indan-2-yloxy-3-[(1R,4R)-2-oxa-5-azabicyclo[2.2.1]heptane-5-carbonyl]-1,8-naphthyridin-4-one], the apical-to-basolateral permeability (Papp A→B) at 60 min in data set [1] was found to be 8.7 nm/s.
